Measurements: the supplement of paper PMC10949913

Legend:
Conditions in all cases: 48 h
[1] = test system: CU-ACC2; experiment: AC50 viability; higher = less potent
Method in brief: (§1)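 Concentration-response curves were fitted to obtain AC50 and area under the curve, keeping inhibitory or non-responding curve classes only. Data came from CellTiter-Glo luminescence, normalised per plate to vehicle and empty-well controls, in three adrenocortical carcinoma cell lines. These were treated in 1,536-well plates with library compounds at 11 concentrations and read after 48 h.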

[2] = test system: CU-ACC1; experiment: AC50 viability; higher = less potent
Method in brief: as §1

[3] = test system: NCI-H295R; experiment: AC50 viability; higher = less potent
Method in brief: as §1

[4] = test system: CU-ACC2; experiment: area under concentration-response curve (viability) (AUC (a.u.)); higher = less active
Method in brief: as §1

[5] = test system: CU-ACC1; experiment: as above
Method in brief: as §1

[6] = test system: NCI-H295R; experiment: as above
Method in brief: as §1

| Compound | AC50 viability [1] | AC50 viability [2] | AC50 viability [3] | area under concentration-response curve [4] | area under concentration-response curve [5] | area under concentration-response curve [6] |
| --- | --- | --- | --- | --- | --- | --- |
| C[C@@H]1COCCN1c1cc(-c2ccnn2C)c2ccnc(-c3ccn[nH]3)c2n1 | 6.61 µM | 0.742 µM | 1.32 µM | 399 | 388 | 415 |
| COc1cc2c(NC3CCN(C(C)C)CC3)nc(C3CCCCC3)nc2cc1OCCCN1CCCC1 | 14.8 µM | 11.8 µM | 9.34 µM | 350 | 369 | 404 |
| O=C(Nc1c[nH]nc1-c1nc2cc(CN3CCOCC3)ccc2[nH]1)NC1CC1 | 2.63 µM | 8.33 µM | 16.6 µM | 386 | 423 | 350 |
| C#Cc1cccc(Nc2ncnc3cc(OC)c(OCCCCCCC(=O)NO)cc23)c1 | 2.95 µM | 4.68 µM | 4.68 µM | 450 | 407 | 448 |
| CNC(=O)c1ccccc1Sc1ccc2c(/C=C/c3ccccn3)n[nH]c2c1 | 16.6 µM | 37.2 µM | 3.72 µM | 493 | 368 | 461 |
| CC(C)C1=C(O)C=C(O)C(=C1)C/2=N/NC(=O)N2C3=CC4=C(C=C3)[N](C)C=C4 | 0.0186 µM | 0.0934 µM | 0.132 µM | 309 | 322 | 416 |
| Cc1ccc(C(N)=O)cc1Nc1nccc(-c2cn(C(C)C)c3cnccc23)n1 | 8.33 µM | 20.9 µM | 16.6 µM | 530 | 446 | 522 |
| CNC1CCC(N(Cc2cccc(-c3ccncc3)c2)C(=O)c2sc3ccccc3c2Cl)CC1 (configuration not stated) | 7.42 µM | 10.5 µM | 9.34 µM | 448 | 406 | 425 |
| Cc1cc(Nc2cc(CN3CCOCC3)c3nc(C)c(Cc4ccc(Cl)cc4F)n3n2)[nH]n1 | 18.6 µM | 37.2 µM | 23.5 µM | 439 | 440 | 420 |
| O=C(c1ccc(Nc2nccc(-c3cc4ccccc4s3)n2)cc1)N1CCC(N2CCCC2)CC1 | 7.42 µM | 9.34 µM | 6.61 µM | 521 | 446 | 462 |
| COCCNCCc1cccc(Nc2ncc3c(n2)-c2ccccc2[C@H](c2ccccc2F)C3)c1 | 26.3 µM | 11.8 µM | 8.33 µM | 502 | 496 | 467 |
| CC(O)(C#Cc1ccc2c(c1)N(c1nc(N)ncc1Cl)CC2)c1nccs1 (configuration not stated) | 18.6 µM | 14.8 µM | 16.6 µM | 560 | 494 | 507 |
| C[C@H]1COCCN1c1cc(C2([S+](=O)([O-])C3CC3)CC2)nc(-c2ccc(NC(=S)NCCO)cc2)n1 | 0.525 µM | 0.295 µM | 0.661 µM | 394 | 325 | 366 |
| CCCCNc1ncc2c(-c3ccc(F)cc3)nn(C[C@H]3CC[C@H](N)CC3)c2n1 | 14.4 µM | 14.4 µM | 14.4 µM | 611 | 523 | 550 |
| COc1cc(C)c(Sc2cnc(NC(=O)c3ccc(CNC(C)C(C)(C)C)cc3)s2)cc1C(=O)N1CCN(C(C)=O)CC1 (configuration not stated) | 16.6 µM | 18.6 µM | 9.34 µM | 443 | 440 | 354 |
| CN(Cc1ccc(/C=C/C(=O)NO)cc1)CC12CC3CC(CC(C3)C1)C2 | 1.05 µM | 1.05 µM | 1.66 µM | 408 | 303 | 365 |
| COCCN1CCN(Cc2ccc(-c3n[nH]c4c3C(=O)c3c(NC(=O)NN5CCOCC5)cccc3-4)cc2)CC1 | 0.148 µM | 0.468 µM | 0.833 µM | 295 | 301 | 372 |
| CN1CCN(Cc2ccc(NC(=O)Nc3ccc(Oc4cc(NC(=O)C5CC5)ncn4)cc3)cc2C(F)(F)F)CC1 | 0.468 µM | 1.66 µM | 2.63 µM | 337 | 426 | 428 |
| NCCCC[C@H](NC(=O)[C@@H](NC(=O)[C@H](Cc1c[nH]c2ccccc12)NC(=O)[C@H](CCCCN)NC(=O)[C@H](CCCCN)NC(=O)[C@H](Cc1c[nH]c2ccccc12)NC(=O)[C@H](Cc1c[nH]c2ccccc12)NC(=O)[C@H](CCCCN)NC(=O)[C@@H](N)CCCCN)C(c1ccccc1)c1ccccc1)C(N)=O | 3.72 µM | 10.5 µM | 9.34 µM | 301 | 301 | 310 |
| COc1cc2c(Nc3ccc(Cl)c(Cl)c3F)ncnc2cc1OC[C@@H]1C[C@@H]2CN(C)C[C@@H]2C1 | 10.5 µM | 16.6 µM | 16.6 µM | 515 | 397 | 483 |
| NC1(Cc2ccc(Cl)cc2)CCN(c2ncnc3[nH]ccc23)CC1 | 18.6 µM | 16.6 µM | 14.8 µM | 540 | 444 | 461 |
| COc1cc(O)c2c(c1)C1OC1C[C@H](O)[C@H](O)C(=O)/C=C\C[C@H](C)OC2=O (some centres not stated) | 16.6 µM | 6.61 µM | 14.8 µM | 492 | 429 | 435 |
| NC1(C(=O)N[C@@H](CCO)c2ccc(Cl)cc2)CCN(c2ncnc3[nH]ccc23)CC1 | 18.6 µM | 3.72 µM | 5.9 µM | 515 | 432 | 463 |
| C=C1CC[C@@H]2[C@](C)(CO)[C@H](O)CC[C@@]2(C)[C@@H]1C/C=C1/C(=O)OC[C@H]1O | 5.9 µM | 11.8 µM | 16.6 µM | 388 | 334 | 372 |
| C[S+](=O)([O-])N1CCC(NC(=O)c2[nH]ncc2NC(=O)c2c(Cl)cccc2Cl)CC1 | 2.63 µM | 7.42 µM | 14.8 µM | 488 | 428 | 426 |
| COc1cccc2cc(-c3nc([C@H]4CC[C@H](C(=O)O)CC4)n4ncnc(N)c34)[nH]c12 | 10.5 µM | 4.17 µM | 5.9 µM | 466 | 454 | 492 |
| CC(C)c1ccc(Cn2ccc3c4c(N)nc(NC5CC5)nc4ccc32)cc1 | 2.95 µM | 7.42 µM | 2.95 µM | 399 | 327 | 335 |
